From patent US10294202B2, “Pyrrolidinones as herbicides” (FMC Corporation, priority 2013, dated 2019)

Assays:
[1] = system: dayflower, VA; experiment: Test E preemergence herbicide test; type: in vivo, Commelina virginica; set-up: key: 0 = no effect, 100 = complete control
Source text: (§1) Seeds of plant species selected from corn (Zea mays), soybean (Glycine max), velvetleaf (Abutilon theophrasti), lambsquarters (Chenopodium album), wild poinsettia (Euphorbia heterophylla), pigweed, palmer (palmer pigweed, Amaranthus palmeri), waterhemp (common waterhemp, Amaranthus rudis), surinam grass (Brachiaria decumbens), crabgrass, large (large crabgrass, Digitaria sanguinalis), crabgrass, Brazil (Brazilian crabgrass, Digitaria horizontalis), panicum, fall (fall panicum, Panicum dichotomiflorum), foxtail, giant (giant foxtail, Setaria faberii), foxtail, green (green foxtail, Setaria viridis), goosegrass (Eleusine indica), johnsongrass (Sorghum halepense), ragweed (common ragweed, Ambrosia elatior), barnyardgrass (Echinochloa crus-galli), sandbur (southern sandbur, Cenchrus echinatus), arrowleaf […] rhombifolia), ryegrass, Italian (Italian ryegrass, Lolium multiflorum), dayflower, VA (Virginia dayflower, Commelina virginica), field bindweed (Convolvulus arvensis), morningglory (Ipomoea coccinea), nightshade (eastern black nightshade, Solanum ptycanthum), kochia (Kochia scoparia), nutsedge, yellow (yellow nutsedge, Cyperus esculentus), cocklebur (common cocklebur, Xanthium strumarium), smartweed (ladysthumb smartweed, Polygonum Persicaria) and beggarticks (hairy beggarticks, Bidens pilosa), were planted into a silt loam soil and treated preemergence with test chemicals formulated in a non-phytotoxic solvent mixture which included a surfactant. Treated plants and controls were maintained in a greenhouse for 21 days, after which time all species were compared to controls and visually evaluated. Plant response ratings, summarized in Table E, are based on a scale of 0 to 100 where 0 is no effect and 100 is complete control. A dash (-) response means no test result.

[2] = system: kochia; experiment: Test E preemergence herbicide test; type: in vivo, Kochia scoparia; set-up: key: 0 = no effect, 100 = complete control
Source text: as §1

| Structure (SMILES) | Plant response rating, Dayflower, VA ([1]; 16 g ai/ha) | Plant response rating, Dayflower, VA ([1]; 62 g ai/ha) | Plant response rating, Dayflower, VA ([1]; 125 g ai/ha) | Plant response rating, Kochia ([2]; 31 g ai/ha) | Plant response rating, Kochia ([2]; 125 g ai/ha) | Plant response rating, Kochia ([2]; 250 g ai/ha) | Plant response rating, Dayflower, VA ([1]; 31 g ai/ha) | Plant response rating, Dayflower, VA ([1]; 250 g ai/ha) | Plant response rating, Kochia ([2]; 16 g ai/ha) | Plant response rating, Kochia ([2]; 62 g ai/ha) |
| --- | --- | --- | --- | --- | --- | --- | --- | --- | --- | --- |
| O=C1NCC(c2ccc(F)cc2)C1C(=O)Nc1ccccc1F (racemic) [Compound 16] | 0 | 0 | 0 | 0 | 0 | 0 |  |  |  |  |
| O=C1NCC(c2cccc(Br)c2)C1C(=O)Nc1ccccc1F (stereo not drawn) [Compound 66] | 0 | 0 | 0 | 0 | 0 | 0 | 0 | 0 | 0 | 0 |
| O=C1NCC(c2ccc(C(F)(F)F)cc2)C1C(=O)Nc1ccc(F)c(F)c1F (stereo not drawn) [Compound 232] |  | 0 | 0 | 90 | 98 | 98 | 0 | 10 |  | 95 |
